Test results published in ChEMBL document CHEMBL1140819, “Protected aminooxyprolines for expedited library synthesis: application to Tsg101-directed proline-oxime containing peptides” (Bioorg Med Chem Lett, 2008).
*1 amine or outer side, *2 acyl side, *3 side chain or, on linkers, in order; H or OH if unused. Where a SMILES comes first, the peptide text is derived from it. [ ]: non-standard residue; d: D form. The star is where a group is joined. ξ: configuration not given here. Fluorescein(5-NHCS) = O=C1OC2(c3ccc(O)cc3Oc3cc(O)ccc32)c2cc(NC(=S)*)ccc21; X18 = O=C([C@@H]1C[C@@H](O/N=C\c2ccc3c(c2)Cc2ccccc2-3)CN1[*:1])[*:2]; X47 = O=C([C@@H]1C[C@@H](O/N=C\c2ccc([N+](=O)[O-])o2)CN1[*:1])[*:2]; X23 = O=C([C@@H]1[C@@H](O/N=C\c2ccc(OCc3ccccc3)cc2)CCN1[*:1])[*:2]; X9 = O=C([C@@H]1C[C@H](O/N=C\c2ccc([N+](=O)[O-])cc2)CN1[*:1])[*:2]; X17 = COc1ccc(/C=N\O[C@@H]2C[C@@H](C(=O)[*:2])N([*:1])C2)cc1O; X21 = O=C([C@@H]1[C@@H](O/N=C\c2cnc3ccccc3c2)CCN1[*:1])[*:2]; X36 = CC(/C=N\O[C@H]1CCN([*:1])[C@@H]1C(=O)[*:2])=C\c1ccccc1; X43 = COc1ccc(/C=N\O[C@H]2CCN([*:1])[C@@H]2C(=O)[*:2])cc1OC; X14 = CCCCCCCC/C=N\O[C@@H]1C[C@@H](C(=O)[*:2])N([*:1])C1; X6 = O=C([C@@H]1C[C@@H](O/N=C\c2ccoc2)CN1[*:1])[*:2]; ξPip = O=C(O)C1CCCCN1; Ava = NCCCCC(=O)O

Molecular target: T1, Tumor susceptibility gene 101 protein (Homo sapiens, UniProt Q99816)
T1 sequence (Q99816 whole entry): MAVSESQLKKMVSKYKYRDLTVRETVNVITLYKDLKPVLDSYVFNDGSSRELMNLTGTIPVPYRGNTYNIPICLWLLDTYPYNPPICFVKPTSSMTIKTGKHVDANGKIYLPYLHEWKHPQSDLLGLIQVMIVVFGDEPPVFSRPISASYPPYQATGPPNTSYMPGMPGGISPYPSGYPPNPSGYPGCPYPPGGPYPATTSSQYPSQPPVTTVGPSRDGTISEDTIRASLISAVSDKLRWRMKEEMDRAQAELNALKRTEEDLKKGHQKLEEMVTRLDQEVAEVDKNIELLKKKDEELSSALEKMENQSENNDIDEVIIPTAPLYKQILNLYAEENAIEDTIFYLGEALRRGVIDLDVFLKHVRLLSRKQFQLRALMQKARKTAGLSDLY
Test: Binding affinity to Tsg101

Row | Compound | IC50 [µM]
1 | CCCCCCCC/C=N\O[C@@H]1C[C@@H](C(=O)N[C@@H](CCC(=O)O)C(=O)N[C@@H](CCC(=O)O)C(N)=O)N(C(=O)C2CCCCN2C(=O)[C@H](C)NC(=O)[C@@H](NC(=O)[C@@H]2CCCN2C(=O)[C@H](CCC(=O)O)NC(=O)[C@@H]2CCCN2C(=O)CCCCNC(=S)Nc2ccc3c(c2)C2(OC3=O)c3ccc(O)cc3Oc3cc(O)ccc32)[C@@H](C)O)C1 (stereo not given in full) ({Fluorescein(5-NHCS)-Ava}-PEPTA[ξPip][X14]EE-NH2) | 54
2 | C[C@H](NC(=O)[C@@H](NC(=O)[C@@H]1CCCN1C(=O)[C@H](CCC(=O)O)NC(=O)[C@@H]1CCCN1C(=O)CCCCNC(=S)Nc1ccc2c(c1)C1(OC2=O)c2ccc(O)cc2Oc2cc(O)ccc21)[C@@H](C)O)C(=O)N1CCCCC1C(=O)N1C[C@@H](O/N=C\c2ccc([N+](=O)[O-])cc2)C[C@H]1C(=O)N[C@@H](CCC(=O)O)C(=O)N[C@@H](CCC(=O)O)C(N)=O (stereo not given in full) ({Fluorescein(5-NHCS)-Ava}-PEPTA[ξPip][X9]EE-NH2) | 91
3 | C[C@H](NC(=O)[C@@H](NC(=O)[C@@H]1CCCN1C(=O)[C@H](CCC(=O)O)NC(=O)[C@@H]1CCCN1C(=O)CCCCNC(=S)Nc1ccc2c(c1)C1(OC2=O)c2ccc(O)cc2Oc2cc(O)ccc21)[C@@H](C)O)C(=O)N1CCCCC1C(=O)N1C[C@H](O/N=C\c2ccc3c(c2)Cc2ccccc2-3)C[C@H]1C(=O)N[C@@H](CCC(=O)O)C(=O)N[C@@H](CCC(=O)O)C(N)=O (stereo not given in full) ({Fluorescein(5-NHCS)-Ava}-PEPTA[ξPip][X18]EE-NH2) | 27
4 | C[C@H](NC(=O)[C@@H](NC(=O)[C@@H]1CCCN1C(=O)[C@H](CCC(=O)O)NC(=O)[C@@H]1CCCN1C(=O)CCCCNC(=S)Nc1ccc2c(c1)C1(OC2=O)c2ccc(O)cc2Oc2cc(O)ccc21)[C@@H](C)O)C(=O)N1CCCCC1C(=O)N1C[C@H](O/N=C\c2ccoc2)C[C@H]1C(=O)N[C@@H](CCC(=O)O)C(=O)N[C@@H](CCC(=O)O)C(N)=O (stereo not given in full) ({Fluorescein(5-NHCS)-Ava}-PEPTA[ξPip][X6]EE-NH2) | 30
5 | COc1ccc(/C=N\O[C@@H]2C[C@@H](C(=O)N[C@@H](CCC(=O)O)C(=O)N[C@@H](CCC(=O)O)C(N)=O)N(C(=O)C3CCCCN3C(=O)[C@H](C)NC(=O)[C@@H](NC(=O)[C@@H]3CCCN3C(=O)[C@H](CCC(=O)O)NC(=O)[C@@H]3CCCN3C(=O)CCCCNC(=S)Nc3ccc4c(c3)C3(OC4=O)c4ccc(O)cc4Oc4cc(O)ccc43)[C@@H](C)O)C2)cc1O (stereo not given in full) ({Fluorescein(5-NHCS)-Ava}-PEPTA[ξPip][X17]EE-NH2) | 23

Compounds with a lower IC50, results first:

Row | IC50 [µM] | Compound
6 | 12 | CC(/C=N\O[C@H]1CCN(C(=O)C2CCCCN2C(=O)[C@H](C)NC(=O)[C@@H](NC(=O)[C@@H]2CCCN2C(=O)[C@H](CCC(=O)O)NC(=O)[C@@H]2CCCN2C(=O)CCCCNC(=S)Nc2ccc3c(c2)C2(OC3=O)c3ccc(O)cc3Oc3cc(O)ccc32)[C@@H](C)O)[C@@H]1C(=O)N[C@@H](CCC(=O)O)C(=O)N[C@@H](CCC(=O)O)C(N)=O)=C\c1ccccc1 (stereo not given in full) ({Fluorescein(5-NHCS)-Ava}-PEPTA[ξPip][X36]EE-NH2)
7 | 12 | C[C@H](NC(=O)[C@@H](NC(=O)[C@@H]1CCCN1C(=O)[C@H](CCC(=O)O)NC(=O)[C@@H]1CCCN1C(=O)CCCCNC(=S)Nc1ccc2c(c1)C1(OC2=O)c2ccc(O)cc2Oc2cc(O)ccc21)[C@@H](C)O)C(=O)N1CCCCC1C(=O)N1C[C@H](O/N=C\c2ccc([N+](=O)[O-])o2)C[C@H]1C(=O)N[C@@H](CCC(=O)O)C(=O)N[C@@H](CCC(=O)O)C(N)=O (stereo not given in full) ({Fluorescein(5-NHCS)-Ava}-PEPTA[ξPip][X47]EE-NH2)
8 | 19 | C[C@H](NC(=O)[C@@H](NC(=O)[C@@H]1CCCN1C(=O)[C@H](CCC(=O)O)NC(=O)[C@@H]1CCCN1C(=O)CCCCNC(=S)Nc1ccc2c(c1)C1(OC2=O)c2ccc(O)cc2Oc2cc(O)ccc21)[C@@H](C)O)C(=O)N1CCCCC1C(=O)N1CC[C@H](O/N=C\c2cnc3ccccc3c2)[C@H]1C(=O)N[C@@H](CCC(=O)O)C(=O)N[C@@H](CCC(=O)O)C(N)=O (stereo not given in full) ({Fluorescein(5-NHCS)-Ava}-PEPTA[ξPip][X21]EE-NH2)
9 | 22 | COc1ccc(/C=N\O[C@H]2CCN(C(=O)C3CCCCN3C(=O)[C@H](C)NC(=O)[C@@H](NC(=O)[C@@H]3CCCN3C(=O)[C@H](CCC(=O)O)NC(=O)[C@@H]3CCCN3C(=O)CCCCNC(=S)Nc3ccc4c(c3)C3(OC4=O)c4ccc(O)cc4Oc4cc(O)ccc43)[C@@H](C)O)[C@@H]2C(=O)N[C@@H](CCC(=O)O)C(=O)N[C@@H](CCC(=O)O)C(N)=O)cc1OC (stereo not given in full) ({Fluorescein(5-NHCS)-Ava}-PEPTA[ξPip][X43]EE-NH2)
10 | 18 | C[C@H](NC(=O)[C@@H](NC(=O)[C@@H]1CCCN1C(=O)[C@H](CCC(=O)O)NC(=O)[C@@H]1CCCN1C(=O)CCCCNC(=S)Nc1ccc2c(c1)C1(OC2=O)c2ccc(O)cc2Oc2cc(O)ccc21)[C@@H](C)O)C(=O)N1CCCCC1C(=O)N1CC[C@H](O/N=C\c2ccc(OCc3ccccc3)cc2)[C@H]1C(=O)N[C@@H](CCC(=O)O)C(=O)N[C@@H](CCC(=O)O)C(N)=O (stereo not given in full) ({Fluorescein(5-NHCS)-Ava}-PEPTA[ξPip][X23]EE-NH2)
